The values below come from patent publication US20240360151A1 (SANOFI, priority 2023, published 2024).

For one experiment, the target named is T1, NLRP3 inflammasome (Homo sapiens, UniProt Q96P20).
T1 construct: endogenous in cells; host or cells: THP-1 monocytic cells
Kind of experiment: IL-1β secretion assay (NLRP3 IC50) in LPS-primed, nigericin-activated THP-1 cells, HTRF. It is filed as cell-based. To be noted: monocytic THP-1 cells; LPS 10 ng/mL 3 h priming, then compound + nigericin 10 μM 2 h; relative IC50, 10 concentrations, geometric mean. The essentials: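 THP-1 cells primed with LPS 10 ng/mL for 3 h at 37° C., then compound (10-point 1:3 dilution, 0.1% DMSO) added with 10 μM nigericin for 2 h. Supernatant IL-1β measured by HTRF; relative IC50 from a 4-parameter logistic fit, reported as geometric mean.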
Background: TR-FRET usually uses a lanthanide donor and a delayed reading to cut background.

For experiment [1], the system named is NF-kB pathway (TNF-α secretion by THP-1 cells). Kind of experiment: TNF-α secretion assay in LPS-stimulated THP-1 cells, Lumit immunoassay. To be noted: Homo sapiens, THP-1, 3 h, monocytic THP-1 cells, LPS 10 ng/mL, relative IC50, 10 concentrations, geometric mean. The experiment is classed as cell-based, human. As to the method:
Monocytic THP-1 cells were maintained in RPMI 1640 media (Gibco 21875)+10% FBS, (Gibco 10500)+1% penicillin/streptomycin (Gibco 15140-122). Cells were then plated at 40,000 cells per well in 384-well cell culture plates (Corning 3542) and maintained with RPMI1640 (Gibco 11835)+5% FBS, (Gibco 10500). Experimental compounds were prepared and added as described above. TNF-α secretion was triggered by the addition of 10 ng/mL LPS (invivoGen, tlrl-3pelps) and cells were incubated for 3 hours. TNF-α levels were monitored directly in the cells plate using an Lumit assay (Lumit TNFa-Human Immunoassay—Promega W6051) according to manufacturers' instructions.
Data were expressed as percentage of inhibition (I %) as compared to a maximum signal control containing no small molecule (I %=0%) according to the formula: 1%=(1−((Sample−Min))/((Max−Min)))×100, where: • Sample: Signal obtained in the presence of each compound tested, • Max: Maximum signal in the absence of compound added, • Min: Minimum or background signal obtained in the absence of activation signal.
Relative IC50 (IC50 rel) were obtained from a dose response curve with 10 concentrations. Final IC50 rels are expressed as the geometric mean.
Relative IC50 values were estimated with Biost@t-SPEED v2.4 internal software based on SAS system using the 4-parameter logistic model according to Ratkovsky and Reedy (D. A. Ratkovsky, T. J. Reedy, Choosing near-linear parameters in the four parameters logistic model radioligands and related assays. Biometrics, 42 (1986), 575-582): Y=A+C/((1+exp(−B*(log(X)−M)))), where: • A: Lower asymptote (BOTTOM), • A+C: Upper asymptote (TOP), • M: the logarithm of the concentration estimated at the inflexion point (the logarithm of the relative IC50), • B: Slope at the inflexion point of the curve.

T1 sequence (Q96P20 whole entry): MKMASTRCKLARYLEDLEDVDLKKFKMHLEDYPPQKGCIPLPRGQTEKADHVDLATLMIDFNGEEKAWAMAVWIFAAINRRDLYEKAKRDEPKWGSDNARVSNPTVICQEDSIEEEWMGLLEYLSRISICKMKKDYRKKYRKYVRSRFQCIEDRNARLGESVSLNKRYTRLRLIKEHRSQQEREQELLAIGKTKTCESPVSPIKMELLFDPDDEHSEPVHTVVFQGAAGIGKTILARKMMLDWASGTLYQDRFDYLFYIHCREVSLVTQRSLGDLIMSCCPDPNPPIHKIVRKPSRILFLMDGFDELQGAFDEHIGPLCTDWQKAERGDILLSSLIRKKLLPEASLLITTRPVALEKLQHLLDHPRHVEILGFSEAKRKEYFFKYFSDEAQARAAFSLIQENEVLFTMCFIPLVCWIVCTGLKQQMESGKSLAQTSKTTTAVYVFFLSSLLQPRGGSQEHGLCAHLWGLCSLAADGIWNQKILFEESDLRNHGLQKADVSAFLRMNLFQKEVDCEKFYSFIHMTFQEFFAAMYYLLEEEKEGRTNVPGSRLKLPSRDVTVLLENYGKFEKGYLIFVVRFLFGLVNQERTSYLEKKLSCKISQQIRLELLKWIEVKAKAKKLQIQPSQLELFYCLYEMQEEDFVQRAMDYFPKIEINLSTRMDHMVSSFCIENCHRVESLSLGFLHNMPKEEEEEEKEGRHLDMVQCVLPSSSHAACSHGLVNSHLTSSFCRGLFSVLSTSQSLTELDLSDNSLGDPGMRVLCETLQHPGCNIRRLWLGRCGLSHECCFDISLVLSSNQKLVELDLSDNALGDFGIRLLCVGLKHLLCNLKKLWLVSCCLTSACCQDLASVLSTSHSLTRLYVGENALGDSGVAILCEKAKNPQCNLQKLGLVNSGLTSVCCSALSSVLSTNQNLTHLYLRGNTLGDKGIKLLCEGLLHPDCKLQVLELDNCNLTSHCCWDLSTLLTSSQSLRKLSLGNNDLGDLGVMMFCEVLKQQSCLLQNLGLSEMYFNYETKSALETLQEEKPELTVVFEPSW

As for `CC(=O)NC[C@H]1CN(c2ccc(-c3c(C)cc(C(F)(F)F)cc3O)nn2)CCO1` [Example 275, N-[[(2S)-4-[6-[2-hydroxy-6-methyl-4-(trifluoromethyl)phenyl]pyridazin-3-yl]morpholin-2-yl]methyl]acetamide], the IC50 (usually the concentration needed to halve the response being measured) at NLRP3 inflammasome is 0.127 µM; in experiment [1] it was greater than 10 µM.

Take `Cc1cc(C)c(-c2ccc(N3CCO[C@H](CC(N)=O)C3)nn2)c(O)c1` (single isomer, unassigned) [Example 146]: the IC50 was 0.242 µM on NLRP3 inflammasome and greater than 10 µM in experiment [1]. Turning to `CCC(=O)C1CN(c2ccc(-c3c(C)cc(C)cc3O)nn2)CCO1` (centres unmarked) [Example 126, 1-[4-[6-(2-hydroxy-4,6-dimethylphenyl)pyridazin-3-yl]morpholin-2-yl]propan-1-one], the concentration for half-maximal inhibition (IC50) at NLRP3 inflammasome was 0.484 µM; in experiment [1], greater than 10 µM.

For `OC[C@H]1CCCN(c2ccc(-c3c(O)cc(Cl)cc3Cl)nn2)C1` [Example 34, 3,5-dichloro-2-[6-[(3S)-3-(hydroxymethyl)-1-piperidyl]pyridazin-3-yl]phenol], the figures for the IC50 (at NLRP3 inflammasome; in experiment [1]) were 0.095 µM and greater than 10 µM, respectively. Consider `CC(=O)N1CC[C@@H]2OCCN(c3ccc(-c4c(C)cc(C(F)(F)F)cc4O)nn3)[C@@H]2C1` (single isomer, unassigned) [Example 263], for which the 50% inhibitory concentration (IC50) at NLRP3 inflammasome is 0.18 µM; in experiment [1] it was greater than 10 µM. Turning to `CC(=O)N1CC[C@H]2OCCN(c3nnc(-c4c(C)cc(C)cc4O)cc3C(F)F)[C@H]2C1` [Example 405, 1-[(4aS,8aR)-4-[4-(difluoromethyl)-6-(2-hydroxy-4,6-dimethyl-phenyl)pyridazin-3-yl]-3,4a,5,7,8,8a-hexahydro-2H-pyrido[4,3-b][1,4]oxazin-6-yl]ethanone], the IC50 at NLRP3 inflammasome is 0.089 µM; in experiment [1], greater than 10 µM. `Cc1cc(C)c(-c2ccc(N3CCO[C@@H](CCO)C3)nn2)c(O)c1` (single isomer, unassigned) [Example 234]: the IC50 at NLRP3 inflammasome was 0.355 µM; in experiment [1], greater than 10 µM.

As to `CC(=O)N1CC[C@H]2OCCN(c3cc(C(F)F)c(-c4ccc(C(F)(F)F)cc4O)nn3)[C@H]2C1` [Example 386, 1-[(4aS,8aR)-4-[5-(difluoromethyl)-6-[2-hydroxy-4-(trifluoromethyl)phenyl]pyridazin-3-yl]-3,4a,5,7,8,8a-hexahydro-2H-pyrido[4,3-b][1,4]oxazin-6-yl]ethanone], the IC50 was 0.019 µM on NLRP3 inflammasome and greater than 10 µM in experiment [1]. The matching figures for `Cc1cc(C(F)(F)F)cc(O)c1-c1ccc(N2CCO[C@@H]3CCN(C)C[C@@H]32)nn1` (single isomer, unassigned) [Example 260]: 0.18 µM and greater than 10 µM.

As to `Cc1cc(C(F)(F)F)cc(O)c1-c1ccc(N2CCO[C@@H](C)C2)nn1` [Example 259, 3-methyl-2-[6-[(2S)-2-methylmorpholin-4-yl]pyridazin-3-yl]-5-(trifluoromethyl)phenol], the IC50 was 0.067 µM at NLRP3 inflammasome and greater than 10 µM in experiment [1]. The matching figures for `Cc1cc(C)c(-c2ccc(N3C[C@@H](CO)O[C@H](CO)C3)nn2)c(O)c1` [Example 198, 2-[6-[(2S,6S)-2,6-bis(hydroxymethyl)morpholin-4-yl]pyridazin-3-yl]-3,5-dimethyl-phenol]: 0.016 µM and greater than 10 µM. With `Cc1cc(C)c(-c2ccc(N3C[C@@H](O)CC3=O)nn2)c(O)c1` [Example 86, (4S)-4-hydroxy-1-[6-(2-hydroxy-4,6-dimethyl-phenyl)pyridazin-3-yl]pyrrolidin-2-one], the results for the IC50 (at NLRP3 inflammasome; in experiment [1]) were 0.506 µM and greater than 10 µM, respectively. The corresponding values for `Cc1cccc(O)c1-c1ccc(N2CCO[C@@H]3CCN(C)C[C@@H]32)nn1` [Example 354, 2-[6-[(4aS,8aR)-6-methyl-3,4a,5,7,8,8a-hexahydro-2H-pyrido[4,3-b][1,4]oxazin-4-yl]pyridazin-3-yl]-3-methyl-phenol] are 0.02 µM and greater than 10 µM. Regarding `Cc1ccc(-c2nnc(N3CCO[C@H](CO)C3)cc2C(F)F)c(O)c1` [Example 144, 2-[4-(difluoromethyl)-6-[(2S)-2-(hydroxymethyl)morpholin-4-yl]pyridazin-3-yl]-5-methyl-phenol], the IC50 on NLRP3 inflammasome is 0.151 µM; in experiment [1], greater than 10 µM.

Take `Cc1cc(O)c(-c2ccc(N3CCO[C@H](CO)C3)nn2)c(F)c1` [Example 45, 3-fluoro-2-[6-[(2S)-2-(hydroxymethyl)morpholin-4-yl]pyridazin-3-yl]-5-methyl-phenol]: the IC50 is 0.281 µM at NLRP3 inflammasome and greater than 10 µM in experiment [1]. For the molecule `Cc1cc(C(F)(F)F)cc(O)c1-c1cc(C(F)F)c(N2CCO[C@H](CO)C2)nn1` [Example 194, 2-[5-(difluoromethyl)-6-[(2S)-2-(hydroxymethyl)morpholin-4-yl]pyridazin-3-yl]-3-methyl-5-(trifluoromethyl)phenol], the results for the IC50 (on NLRP3 inflammasome; in experiment [1]) were 0.004 µM and greater than 10 µM, respectively. For `OC[C@@H]1CN(c2ccc(-c3c(O)cc(Cl)cc3Cl)nn2)CCO1` [Example 21, 3,5-dichloro-2-[6-[(2S)-2-(hydroxymethyl)morpholin-4-yl]pyridazin-3-yl]phenol], the concentration for half-maximal inhibition (IC50) on NLRP3 inflammasome was 0.02 µM; in experiment [1] it was greater than 10 µM.

Consider `Cc1cc(C(F)(F)F)cc(O)c1-c1ccc(N2CCO[C@H]3CCNC[C@H]32)nn1` (racemic) [Example 197, 2-[6-[rac-(4aR,8aS)-2,3,4a,5,6,7,8,8a-octahydropyrido[4,3-b][1,4]oxazin-4-yl]pyridazin-3-yl]-3-methyl-5-(trifluoromethyl)phenol], for which the IC50 at NLRP3 inflammasome is 0.009 µM; in experiment [1], greater than 10 µM. `Cc1cc(C)c(-c2ccc(N3CCO[C@H]4CCN(C5CCC5)C[C@H]43)nn2)c(O)c1` (single isomer, unassigned) [Example 10]: the half-inhibitory concentration (IC50) on NLRP3 inflammasome is 0.178 µM; in experiment [1], greater than 10 µM. For the molecule `CCc1cc(N2CCO[C@@H]3CCN(C)C[C@@H]32)nnc1-c1ccc(C(F)(F)F)cc1O` [Example 443, 2-[6-[(4aS,8aR)-6-methyl-3,4a,5,7,8,8a-hexahydro-2H-pyrido[4,3-b][1,4]oxazin-4-yl]-4-ethyl-pyridazin-3-yl]-5-(trifluoromethyl)phenol], the IC50 was 0.01 µM at NLRP3 inflammasome and greater than 10 µM in experiment [1]. Take `CC(=O)N1C[C@@H]2CCN(c3ccc(-c4c(C)cc(C(F)(F)F)cc4O)nn3)[C@@H]2C1` (racemic) [Example 228, 1-[rac-(3aS,6aS)-1-[6-[2-hydroxy-6-methyl-4-(trifluoromethyl)phenyl]pyridazin-3-yl]-2,3,3a,4,6,6a-hexahydropyrrolo[3,4-b]pyrrol-5-yl]ethanone]: the IC50 is 0.271 µM at NLRP3 inflammasome and greater than 10 µM in experiment [1]. `Cc1cc(C(F)(F)F)cc(O)c1-c1ccc(N2CCO[C@@H]3CN(C)C[C@H]32)nn1` (racemic) [Example 289, 3-methyl-2-[6-[rac-(4aR,7aR)-6-methyl-2,3,4a,5,7,7a-hexahydropyrrolo[3,4-b][1,4]oxazin-4-yl]pyridazin-3-yl]-5-(trifluoromethyl)phenol]: on NLRP3 inflammasome, the IC50 is 0.14 µM. Still for that read-out and setting: to `Cc1cc(C(F)(F)F)cc(O)c1-c1ccc(N2CCO[C@@H]3CCOC[C@@H]32)nn1` (racemic) [Example 438, 3-methyl-2-[6-[rac-(4aS,8aR)-3,4a,5,7,8,8a-hexahydro-2H-pyrano[4,3-b][1,4]oxazin-4-yl]pyridazin-3-yl]-5-(trifluoromethyl)phenol] belongs 0.411 µM; to `Cc1cc(Cl)cc(O)c1-c1ccc(N2CCO[C@@H]3CCNC[C@@H]32)nn1` [Example 309, 2-[6-[(4aS,8aR)-2,3,4a,5,6,7,8,8a-octahydropyrido[4,3-b][1,4]oxazin-4-yl]pyridazin-3-yl]-5-chloro-3-methyl-phenol], 0.249 µM.

For `CC(=O)NC1CC2(CCN(c3ccc(-c4c(O)cc(Cl)cc4Cl)nn3)CC2)C1` [Example 47, N-[7-[6-(2,4-dichloro-6-hydroxy-phenyl)pyridazin-3-yl]-7-azaspiro[3.5]nonan-2-yl]acetamide], the IC50 at NLRP3 inflammasome was 1.04 µM. The same measure, in the same setting: to `CCc1cc(C(F)(F)F)cc(O)c1-c1ccc(N2CCO[C@@H]3CCN(C)C[C@@H]32)nn1` [Example 481, 2-[6-[(4aS,8aR)-6-methyl-3,4a,5,7,8,8a-hexahydro-2H-pyrido[4,3-b][1,4]oxazin-4-yl]pyridazin-3-yl]-3-ethyl-5-(trifluoromethyl)phenol] belongs 0.002 µM.
